Reference: patent publication US4684748A, “Anticonvulsant agents” (Eli Lilly and Company, priority 1985, dated 1987)
Counter-ions that a name gives are not always drawn.

System: tonic extensor seizures elicited by maximal electroshock
Assay: electroshock induced convulsion inhibition assay (E.S.)
Type: in vivo, Cox standard strain albino male mice
Settings: Mus musculus; oral dose (gavage), mice, 0.1 second 50 milliampere corneal electroshock; at the time after dosing providing an optimal response
Excerpt: The compounds of Formula I are anticonvulsant agents with a high therpeutic ratio and long half-life and are therefore useful in the treatment and prevention of convulsions in mammals. […] The compounds are effective against tonic extensor seizures elicited by maximal electroshock and should therefore be useful for treating generalized tonic-clonic ("grand mal"), cortical focal, complex partial (temporal lobe epilepsy), simple partial (focal moor), and post-traumatic seizures in humans. […] In the electroshock induced convulsion inhibition assay (E.S.), the compound to be tested was suspended in acacia and administered by gavage to each of ten Cox standard strain albino male mice (18-24 g) at the dose level being investigated. […] The animals were examined and evaluated immediately after the electroshock for the occurrence of clonic, flexor tonic, or extensor tonic convulsions, or death and the ED50 was determined for each compound as the dose which inhibited the occurrence of extensor tonic convulsions in one half of the animals immediately after the electroshock. For comparison, 18 milliamperes was usually sufficient to produce extensor tonic convulsions in about half of the control animals; at 50 milliamperes, almost all control animals (receiving vehicle only) […]. The test results summarized in Table I are reported as the ED50 values at the time interval found to provide an optimal response after dosing.
For Cc1cc(C(=O)NC(C)c2ccccc2)ccc1N (racemic) [Example 12, (R,S)-4-amino-3-methyl-N-(1-phenylethyl)benzamide hydrochloride], the ED50 was 20 mg/kg.
In the case of Cc1cc(C(=O)NC(C)c2ccccc2)cc(C)c1N (racemic) [Example 22, (R,S)-4-amino-3,5-dimethyl-N-(1-phenylethyl)benzamide], the ED50 is reported as 26.7 mg/kg.
For Cc1ccccc1CNC(=O)c1cc(C)c(N)c(C)c1 [Example 13, 4-Amino-3,5-dimethyl-N-[(2-methylphenyl)methyl]benzamide], the ED50 was 20 mg/kg.
Cc1cc(C(=O)Nc2c(C)cccc2C)ccc1N [Example 14, 4-Amino-N-(2,6-dimethylphenyl)-3-methylbenzamide] gave an ED50 of 3.8 mg/kg.
Work on Cc1cc(C(=O)Nc2c(C)cccc2C)cc(C)c1N [Example 15, 4-Amino-N-(2,6-dimethylphenyl)-3,5-dimethylbenzamide] yielded an ED50 of 5.6 mg/kg.
For Cc1cc(C(=O)Nc2ccccc2C)ccc1N [Example 16, 4-Amino-3-methyl-N-(2-methylphenyl)benzamide], the ED50 was 5.4 mg/kg.
For Cc1cc(C(=O)NCc2ccccc2)cc(C)c1N [Example 17, 4-Amino-3,5-dimethyl-N-benzylbenzamide], the ED50 was 75 mg/kg.
Work on Cc1cc(C(=O)NCc2ccccc2C)ccc1N [Example 18, 4-Amino-3-methyl-N-(2-methylbenzyl)benzamide] yielded an ED50 of 16.3 mg/kg.
Molecule Cc1cc(C(=O)NCc2ccccc2)ccc1N.Cl [Example 19, 4-Amino-3-methyl-N-benzylbenzamide hydrochloride] has an ED50 of 9.6 mg/kg.
Molecule Cc1cc(C(=O)N[C@H](C)c2ccccc2)cc(C)c1N [Example 20, (R)-4-amino-3,5-dimethyl-N-(1-phenylethyl)benzamide] has an ED50 of 46.8 mg/kg.
In the case of Cc1cc(C(=O)N[C@@H](C)c2ccccc2)cc(C)c1N [Example 21, (S)-4-amino-3,5-dimethyl-N-(1-phenylethyl)benzamide], the ED50 is reported as 60.5 mg/kg.

System: seizures
Assay: not given
Settings: man; cited from earlier work
In the case of O=C1NC(=O)C(c2ccccc2)(c2ccccc2)N1 [phenytoin], the “plasma level at which seizures are controlled” value is listed as 10 µg/mL.
